Laboratory results reported in patent US7271161B2, “Platinum complexes as antitumor agents in combination with biochemical modulation” (Board of Regents, the University of Texas System, priority 2002, dated 2007).
Where two headings read alike, the source gives them in different places.

Experiments:
[1] = test system: sensitive and resistant cells; conditions: cited from earlier work
SKOV-3 cell line = experiment: MTT cytotoxicity assay, cisplatin-resistant SKOV-3 cells, with or without BSO; type: cell-based, Human; conditions: for IC50: Table 4
Description: (§1) The ovarian A2780 and 2008 cell lines are sensitive to cisplatin, while the corresponding 2780CP and 2008/C13* cell lines were selected for resistance following in vitro exposure to cisplatin. The SKOV-3 cell line was established from a patient who was resistant to cisplatin therapy and is considered a model of cisplatin resistance. The A2780 and 2780CP cells have wild-type p53 function, while SKOV-3 is devoid of p53 function. The p53 status for the 2008 and 2008/C131 cells is presently not known.
(§2) Procedure for Cytotoxic Evaluation. All cell lines are maintained in RPMI 1640 medium supplemented with 10% fetal bovine serum, 50 μg/ml penicillin, 50 μg/ml streptomycin, 100 μg/ml neomycin and 0.3 mg/ml L-glutamine. The ovarian lines also require 2 μg/ml insulin for maximal growth. Cells are grown as monolayers at 37° C. in a humidified atmosphere of 5% CO2:95% air. Cytotoxicity is determined by a standard MTT assay. Briefly, the exponentially-growing cells are trypsinized to dislodge them before use. After diluting the tumor cells to appropriate concentrations (2,000-30,000 cells/ml), 100 μl aliquots of the cell suspensions are added to each well of a 96-well microtiter plate. The cells are allowed to attach overnight, and then exposed for 24 hr to BSO at a concentration that is equal to or less than maximally tolerated concentration (MTC). At 22 hr after addition of BSO, the platinum complex is added, and 2 hr later the cells are washed and reincubated. After another 5 days, when control cells are in an exponential phase of growth, 50 μl of an MTT solution (3 mg/ml) is added to each well. Following a 3-hr incubation, the medium is removed and replaced by 50 μl of 100% DMSO to dissolve MTT formazan crystals. Plates are agitated on a plate shaker for 5 min, and absorbances are measured at 570 nm in a multiwell scanning spectrophotometer.
(§3) IC50 values, defined as the drug concentration (μM) inhibiting cell growth by 50% compared to control wells, are determined by fitting a sigmoidal curve to the data using a computer program. Resistance factor is calculated as a ratio of the IC50 against resistant cell line to the IC50 against parent cell line. The dose modification factor (DMF) is derived from a ratio of IC50 without BSO to that with BSO.

2008/C13* cell line = experiment: MTT cytotoxicity assay, cisplatin-resistant ovarian 2008/C13* cells, with or without BSO; type: cell-based, Human; conditions: for IC50: Table 4
Description: as §1, §2, §3

[2] = test system: human melanoma cell line (RPMI 8322); conditions: BSO pretreatment; RPMI 8322; cited from earlier work
Human 2780CP cell line = experiment: MTT cytotoxicity assay, cisplatin-resistant ovarian 2780CP cells, with or without BSO; type: cell-based; parameters: key to DMF vs. 2780CP Control (Without BSO) / DMF Control / DMF +BSO (MTC): DMF = IC50 without BSO / IC50 with BSO; conditions: for Resistance Factor vs. 2780CP +10 μM BSO: IC50 2780CP with 10 μM BSO / IC50 A2780 without BSO; for Resistance Factor vs. 2780CP +3 mM BSO (MTC): IC50 2780CP with 3 mM BSO (MTC) / IC50 A2780 without BSO; for Resistance Factor vs. 2780CP Control (Without BSO): IC50 2780CP without BSO / IC50 A2780 without BSO; for DMF vs. 2780CP +10 μM BSO: IC50 without BSO / IC50 with 10 μM BSO; for DMF vs. 2780CP +3 mM BSO (MTC): IC50 without BSO / IC50 with 3 mM BSO (MTC); for DMF vs. 2780CP Control (Without BSO): without BSO (reference)
Description: as §1, §2, §3

Human A2780 cell line = experiment: MTT cytotoxicity assay, cisplatin-sensitive ovarian A2780 cells, with or without BSO; type: cell-based; parameters: key to DMF vs. A2780 Control (Without BSO): DMF = IC50 without BSO / IC50 with BSO; conditions: for DMF vs. A2780 +10 μM BSO (MTC): IC50 without BSO / IC50 with 10 μM BSO (MTC); for DMF vs. A2780 Control (Without BSO): without BSO (reference)
Description: as §1, §2, §3

2008 cell line = experiment: MTT cytotoxicity assay, cisplatin-sensitive ovarian 2008 cells, with or without BSO; type: cell-based, Human; conditions: for IC50: Table 4
Description: as §1, §2, §3

[3] = +10 μM BSO, read-out: IC50 (μM) vs. 2780CP +10 μM BSO
[4] = +3 mM BSO (MTC), read-out: IC50 (μM) vs. 2780CP +3 mM BSO (MTC)
[5] = without BSO, read-out: IC50 (μM) vs. 2780CP Control (Without BSO)
[6] = +10 μM BSO (MTC), 24 hr BSO, read-out: IC50 (μM) vs. A2780 +10 μM BSO (MTC)
[7] = without BSO, 2 hr platinum exposure, MTT after 5 days, read-out: IC50 (μM) vs. A2780 Control (Without BSO)

## N.N.[Cl][Pt][Cl] [Complex 1, cis-diamminedichloroplatinum, reference compound]
[1]; isolated publications
  increase in antitumor activity in combination with BSO, isolated publications: up to 4 fold
[1]; usually
  increase in antitumor activity in combination with BSO, usual: under 2 fold
SKOV-3 cell line; SKOV-3, BSO at sub-MTC, read-out: IC50 +BSO (MTC)
  IC50: 21.1 µM
SKOV-3 cell line; SKOV-3, absence of BSO, read-out: IC50 Control
  IC50: 33 µM
SKOV-3 cell line; Table 5, SKOV-3, BSO at sub-MTC
  DMF +BSO (MTC): 1.56
SKOV-3 cell line; Table 5, SKOV-3, absence of BSO (reference)
  DMF Control: 1.00
SKOV-3 cell line; Table 6, SKOV-3 with BSO vs. 2008 without BSO
  RF +BSO (MTC): 14.9
SKOV-3 cell line; Table 6, SKOV-3 without BSO vs. 2008 without BSO
  RF Control: 23.2
2008/C13* cell line; 2008/C13*, BSO at MTC, read-out: IC50 +BSO (MTC)
  IC50: 10.4 µM
2008/C13* cell line; 2008/C13*, absence of BSO, read-out: IC50 Control
  IC50: 20.8 µM
2008/C13* cell line; Table 5, 2008/C13*, BSO at MTC
  DMF +BSO (MTC): 2.00
2008/C13* cell line; Table 5, 2008/C13*, absence of BSO (reference)
  DMF Control: 1.00
2008/C13* cell line; Table 6, 2008/C13* with BSO vs. 2008 without BSO
  RF +BSO (MTC): 7.32
2008/C13* cell line; Table 6, 2008/C13* without BSO vs. 2008 without BSO
  RF Control: 14.6
[2]
  dose modification factor (DMF), potentiation by BSO: 1.5
Human 2780CP cell line
  Resistance Factor vs. 2780CP +10 μM BSO: 12.1
  Resistance Factor vs. 2780CP +3 mM BSO (MTC): 8.63
  Resistance Factor vs. 2780CP Control (Without BSO): 14.9
Human 2780CP cell line; Table 4, 2780CP, BSO at MTC, read-out: IC50 +BSO (MTC)
  IC50: 58.3 µM
Human 2780CP cell line; Table 4, 2780CP, absence of BSO, read-out: IC50 Control
  IC50: 101 µM
Human 2780CP cell line; Table 5, 2780CP, BSO at MTC
  DMF +BSO (MTC): 1.73
Human 2780CP cell line; Table 5, 2780CP, absence of BSO (reference)
  DMF Control: 1.00
Human 2780CP cell line; Table 6, 2780CP with BSO vs. A2780 without BSO
  RF +BSO (MTC): 8.63
Human 2780CP cell line; Table 6, 2780CP without BSO vs. A2780 without BSO
  RF Control: 14.9
Human 2780CP cell line; in both sensitive and resistant models (Table 2: A2780 and 2780CP)
  increase in antitumor activity when combined with BSO: less than 2 fold
Human A2780 cell line; Table 4, A2780, BSO at MTC, read-out: IC50 +BSO (MTC)
  IC50: 4.25 µM
Human A2780 cell line; Table 4, A2780, absence of BSO, read-out: IC50 Control
  IC50: 6.75 µM
Human A2780 cell line; Table 5, A2780, BSO at MTC
  DMF +BSO (MTC): 1.59
Human A2780 cell line; Table 5, A2780, absence of BSO (reference)
  DMF Control: 1.00
Human A2780 cell line; Table 6, A2780 parent line without BSO (reference)
  RF Control: 1.00
2008 cell line; 2008, BSO at MTC, read-out: IC50 +BSO (MTC)
  IC50: 0.77 µM
2008 cell line; 2008, absence of BSO, read-out: IC50 Control
  IC50: 1.42 µM
2008 cell line; Table 5, 2008, BSO at MTC
  DMF +BSO (MTC): 1.84
2008 cell line; Table 5, 2008, absence of BSO (reference)
  DMF Control: 1.00
2008 cell line; Table 6, 2008 parent line without BSO (reference)
  RF Control: 1.00

## N[C@@H]1CCCC[C@H]1N.[OH][Pt+2]([OH])([Cl])[Cl] [Complex 14]
Human 2780CP cell line; [3]
  IC50: 15.5 µM
Human 2780CP cell line; [4]
  IC50: 9.54 µM
Human 2780CP cell line
  Resistance Factor vs. 2780CP +10 μM BSO: 12.4
  Resistance Factor vs. 2780CP +3 mM BSO (MTC): 7.63
  Resistance Factor vs. 2780CP Control (Without BSO): 12.6
  DMF vs. 2780CP +10 μM BSO: 1.02
  DMF vs. 2780CP +3 mM BSO (MTC): 1.66
  DMF vs. 2780CP Control (Without BSO): 1.00
Human 2780CP cell line; [5]
  IC50: 15.8 µM
Human A2780 cell line; [6]
  IC50: 1.17 µM
Human A2780 cell line
  DMF vs. A2780 +10 μM BSO (MTC): 1.07
  DMF vs. A2780 Control (Without BSO): 1.00
Human A2780 cell line; [7]
  IC50: 1.25 µM

## [NH2][Pt]([Cl])([Cl])([Cl])([Cl])[NH]C1CCCCC1 [Complex 15]
Human 2780CP cell line; [3]
  IC50: 10.8 µM
Human 2780CP cell line; [4]
  IC50: 4.34 µM
Human 2780CP cell line
  Resistance Factor vs. 2780CP +10 μM BSO: 11.9
  Resistance Factor vs. 2780CP +3 mM BSO (MTC): 4.77
  Resistance Factor vs. 2780CP Control (Without BSO): 16.9
  DMF vs. 2780CP +10 μM BSO: 1.43
  DMF vs. 2780CP +3 mM BSO (MTC): 3.55
  DMF vs. 2780CP Control (Without BSO): 1.00
Human 2780CP cell line; [5]
  IC50: 15.4 µM
Human A2780 cell line; [6]
  IC50: 0.72 µM
Human A2780 cell line
  DMF vs. A2780 +10 μM BSO (MTC): 1.26
  DMF vs. A2780 Control (Without BSO): 1.00
Human A2780 cell line; [7]
  IC50: 0.91 µM

## [NH2][Pt]([OH])([OH])([Cl])([Cl])[NH]C1CCCCC1 [Complex 16]
Human 2780CP cell line; [3]
  IC50: 19.6 µM
Human 2780CP cell line; [4]
  IC50: 8.92 µM
Human 2780CP cell line
  Resistance Factor vs. 2780CP +10 μM BSO: 5.52
  Resistance Factor vs. 2780CP +3 mM BSO (MTC): 2.51
  Resistance Factor vs. 2780CP Control (Without BSO): 6.73
  DMF vs. 2780CP +10 μM BSO: 1.22
  DMF vs. 2780CP +3 mM BSO (MTC): 2.68
  DMF vs. 2780CP Control (Without BSO): 1.00
Human 2780CP cell line; [5]
  IC50: 23.9 µM
Human A2780 cell line; [6]
  IC50: 3.07 µM
Human A2780 cell line
  DMF vs. A2780 +10 μM BSO (MTC): 1.16
  DMF vs. A2780 Control (Without BSO): 1.00
Human A2780 cell line; [7]
  IC50: 3.55 µM
